According to US11534443B2, “Quinazoline compounds, preparation method, use, and pharmaceutical composition thereof” (INSTITUTE OF MATERIA MEDICA, CHINESE ACADEMY OF MEDICAL …, priority 2016, dated 2022):

Key:
PI3Kα = PI3Kα (Homo sapiens (Human), UniProt P42336); experiment: Biochemical evaluation of activity of PI3Kα (Kinase-Glo luminescence kinase assay); settings: 25 μM ATP, 50 μM PIP2, 1 h at room temperature
Method: The potency of compounds in the present intention against PI3Kα was assessed by in vitro kinase assay. The kinase activity of PI3Kα was determined by detecting the level of ADP produced in the kinase reaction with luciferase-based luminescence detection.
The Kinase-Glo™ Kinase Assay Kit was purchased from Promega. All assays were performed at room temperature using white OptiPlate™-384 well plate. The PI3Kα kinase was purchased from Invitrogen. The substrate was PIP2 from Invitrogen. The kinase buffer contained 50 mM Hepes (pH 7.5), 3 mM MgCl2, 100 mM NaCl, 1 mM EGTA, 0.03% CHAPS and 2 mM DTT. […] The substrate solution contained 100 μM PIP2 and 50 μM ATP. The test compound was diluted to 10 mM in 100% DMSO and serially diluted three times into ten different concentrations in 100% DMSO. The compound diluted in 100% DMSO was diluted 25-fold in 1×kinase buffer. 2.5 μL of the diluted compound solution and 2.5 μL PI3Kα kinase solution were added to each well of a 384-well plate. The reaction was initiated by addition of 5 μL substrate solution to each well. […] The plate was then covered and the reaction was allowed to proceed for one hour at room temperature, followed by the addition of 10 μL Kinase-Glo™ reagent to each well to stop the reaction.
The percentage of inhibition was calculated as follows: Inhibition %=100−(max−sample RLU)/(max−min)*100
wherein sample RLU was the luminescence reading for a given compound concentration, min was the reading of DMSO control, and max was the reading of the enzyme-free control. The IC50 value was calculated with the XLfit program in Excel.

[1] = system: human lung cancer cell NCI-H460; experiment: Tumor cell viability by MTT assay; type: cell-based; settings: Homo sapiens, NCI-H460, 96 h
Method: After 24 hours, 100 μL of fresh medium containing different concentrations of test compounds and the corresponding solvent control was added into each well to a final concentration of DMSO less than 0.2%. Six to nine concentration groups were set for each test compound, and three parallel wells were set for each group. The plate was incubated at 5% CO2, 37° C. for 96 hours. 20 μL of freshly prepared PBS solution containing 5 mg/mL MTT was added to each well. The supernatant was discarded after incubation for another 4 hours. 150 μL DMSO was added to each well to dissolve the MTT formazan precipitate. After being mixed by a micro-oscillator, the optical density (OD) was measured at the wavelength of 570 nm, and the tumor cells treated with DMSO were used as a control group.

PI3Kα, sequence (P42336 whole entry): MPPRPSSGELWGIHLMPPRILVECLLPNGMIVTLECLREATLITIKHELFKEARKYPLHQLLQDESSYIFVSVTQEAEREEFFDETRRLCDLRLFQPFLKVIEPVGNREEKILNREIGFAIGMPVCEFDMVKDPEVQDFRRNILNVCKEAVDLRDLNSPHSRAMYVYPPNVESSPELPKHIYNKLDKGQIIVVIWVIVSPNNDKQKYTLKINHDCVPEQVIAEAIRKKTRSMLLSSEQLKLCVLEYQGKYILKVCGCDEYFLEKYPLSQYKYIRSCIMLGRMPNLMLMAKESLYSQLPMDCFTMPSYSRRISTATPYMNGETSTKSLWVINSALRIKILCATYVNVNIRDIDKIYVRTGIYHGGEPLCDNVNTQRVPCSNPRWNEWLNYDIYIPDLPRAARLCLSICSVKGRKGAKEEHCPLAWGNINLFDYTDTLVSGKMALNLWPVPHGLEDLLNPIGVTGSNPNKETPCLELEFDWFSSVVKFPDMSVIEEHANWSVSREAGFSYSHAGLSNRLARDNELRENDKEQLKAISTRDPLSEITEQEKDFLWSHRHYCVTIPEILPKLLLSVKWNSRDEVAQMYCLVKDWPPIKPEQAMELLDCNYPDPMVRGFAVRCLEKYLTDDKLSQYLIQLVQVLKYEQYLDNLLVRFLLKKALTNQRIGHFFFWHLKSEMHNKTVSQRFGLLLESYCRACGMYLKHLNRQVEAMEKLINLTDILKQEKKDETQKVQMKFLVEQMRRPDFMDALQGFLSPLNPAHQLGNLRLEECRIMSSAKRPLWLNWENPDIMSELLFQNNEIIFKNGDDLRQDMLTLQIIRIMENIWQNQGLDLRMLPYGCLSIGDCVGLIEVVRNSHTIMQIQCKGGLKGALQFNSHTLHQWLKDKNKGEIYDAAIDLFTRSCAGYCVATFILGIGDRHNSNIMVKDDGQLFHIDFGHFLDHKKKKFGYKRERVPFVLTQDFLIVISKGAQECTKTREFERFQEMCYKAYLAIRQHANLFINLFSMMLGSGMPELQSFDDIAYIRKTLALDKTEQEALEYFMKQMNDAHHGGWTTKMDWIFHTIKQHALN
PI3Kα, sequence (P27986 whole entry partner): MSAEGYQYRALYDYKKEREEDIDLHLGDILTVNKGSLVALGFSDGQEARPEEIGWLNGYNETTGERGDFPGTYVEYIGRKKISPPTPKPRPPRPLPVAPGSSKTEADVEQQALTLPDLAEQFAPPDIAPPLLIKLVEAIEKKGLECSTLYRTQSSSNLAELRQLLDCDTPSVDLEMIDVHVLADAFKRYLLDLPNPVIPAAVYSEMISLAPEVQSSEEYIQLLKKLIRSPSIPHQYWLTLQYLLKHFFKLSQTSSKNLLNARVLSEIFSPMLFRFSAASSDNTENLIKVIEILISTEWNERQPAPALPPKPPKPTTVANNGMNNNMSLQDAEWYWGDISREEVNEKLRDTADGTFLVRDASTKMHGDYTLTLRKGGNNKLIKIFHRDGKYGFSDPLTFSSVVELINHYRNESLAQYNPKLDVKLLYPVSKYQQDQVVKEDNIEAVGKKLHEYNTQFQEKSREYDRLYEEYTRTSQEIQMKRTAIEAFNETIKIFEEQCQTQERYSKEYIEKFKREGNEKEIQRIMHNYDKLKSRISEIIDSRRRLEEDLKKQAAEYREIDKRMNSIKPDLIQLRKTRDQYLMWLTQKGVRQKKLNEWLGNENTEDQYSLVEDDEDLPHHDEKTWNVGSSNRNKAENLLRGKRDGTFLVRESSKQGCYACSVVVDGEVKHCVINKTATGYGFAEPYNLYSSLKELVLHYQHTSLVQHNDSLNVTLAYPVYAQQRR

IC50 (PI3Kα) [nM] | IC50 [1] [nM] | Structure (SMILES)
1.4 | 570 | COc1ncc(-c2cc(OC3CCOCC3)c3ncnc(C)c3c2)cc1NS(C)(=O)=O [Example 47, N-(2-methoxy-5-(4-methyl-8-((tetrahydro-2H-pyran-4-yl)oxy)quinazolin-6-yl)pyridin-3-yl)methanesulfonamide]
2.1 | 280 | COc1ncc(-c2cc(OC3CCOCC3)c3ncnc(C)c3c2)cc1NS(=O)(=O)C1CC1 [Example 48, N-(2-methoxy-5-(4-methyl-8-((tetrahydro-2H-pyran-4-yl)oxy)quinazolin-6-yl)pyridin-3-yl)cyclopropanesulfonamide]
0.76 | 34 | COc1ncc(-c2cc(O[C@@H]3CCOC3)c3ncnc(C)c3c2)cc1NS(=O)(=O)c1ccc(F)cc1F [Example 49, (R)—N-(2-methoxy-5-(4-methyl-8-((tetrahydrofuran-3-yl)oxy)quinazolin-6-yl)pyridin-3-yl)-2,4-difluorobenzenesulfonamide]
2.2 | 790 | COc1ncc(-c2cc(O[C@@H]3CCOC3)c3ncnc(C)c3c2)cc1NS(C)(=O)=O [Example 50, (R)—N-(2-methoxy-5-(4-methyl-8-((tetrahydrofuran-3-yl)oxy)quinazolin-6-yl)pyridin-3-yl)methanesulfonamide]
0.72 | 32 | COc1ncc(-c2cc(O[C@H]3CCOC3)c3ncnc(C)c3c2)cc1NS(=O)(=O)c1ccc(F)cc1F [Example 51, (S)—N-(2-methoxy-5-(4-methyl-8-((tetrahydrofuran-3-yl)oxy)quinazolin-6-yl)pyridin-3-yl)-2,4-difluorobenzenesulfonamide]
2.1 | 670 | COc1ncc(-c2cc(O[C@H]3CCOC3)c3ncnc(C)c3c2)cc1NS(C)(=O)=O [Example 52, (S)—N-(2-methoxy-5-(4-methyl-8-((tetrahydrofuran-3-yl)oxy)quinazolin-6-yl)pyridin-3-yl)methanesulfonamide]
0.73 | 38 | COc1ncc(-c2cc(OCC3CCOCC3)c3ncnc(C)c3c2)cc1NS(=O)(=O)c1ccc(F)cc1F [Example 53, N-(2-methoxy-5-(4-methyl-8-((tetrahydro-2H-pyran-4-yl)methoxy)quinazolin-6-yl)pyridin-3-yl)-2,4-difluorobenzenesulfonamide]
1.7 | 97 | COc1ncc(-c2cc(OC3CCCCC3)c3ncnc(C)c3c2)cc1NS(=O)(=O)c1ccc(F)cc1F [Example 55, N-(5-(8-(cyclohexyloxy)-4-methylquinazolin-6-yl)-2-methoxypyridin-3-yl)-2,4-difluorobenzenesulfonamide]
0.92 | 73 | COc1ncc(-c2cc(OC3CCCC3)c3ncnc(C)c3c2)cc1NS(=O)(=O)c1ccc(F)cc1F [Example 56, N-(5-(8-(cyclopentyloxy)-4-methylquinazolin-6-yl)-2-methoxypyridin-3-yl)-2,4-difluorobenzenesulfonamide]
1.7 | 450 | COc1ncc(-c2cc(OC3CCC(F)(F)CC3)c3ncnc(C)c3c2)cc1NS(=O)(=O)c1ccc(F)cc1F [Example 57, N-(5-(8-((4,4-difluorocyclohexyl)oxy)-4-methylquinazolin-6-yl)-2-methoxypyridin-3-yl)-2,4-difluorobenzenesulfonamide]
1 | 56 | COc1ncc(-c2cc(OC3CCOC(C)(C)C3)c3ncnc(C)c3c2)cc1NS(=O)(=O)c1ccc(F)cc1F (stereo not drawn) [Example 58, N-(5-(8-((2,2-dimethyltetrahydro-2H-pyran-4-yl)oxy)-4-methylquinazolin-6-yl)-2-methoxypyridin-3-yl)-2,4-difluorobenzenesulfonamide]
0.74 | 17 | COc1ncc(-c2cc(OCC3(C)COC3)c3ncnc(C)c3c2)cc1NS(=O)(=O)c1ccc(F)cc1F [Example 59, N-(2-methoxy-5-(4-methyl-8-((3-methyloxetan-3-yl)methoxy)quinazolin-6-yl)pyridin-3-yl)-2,4-difluoro-benzenesulfonamide]
